Reference: US20230295163A1, “TETRACYCLIC DERIVATIVE, METHOD FOR PREPARING SAME AND USE THEREOF IN MEDICINE” (ZHEJIANG HISUN PHARMACEUTICAL CO., LTD., priority 2020, published 2023)
Like-named read-outs stand apart in the source and are kept apart here.

Columns and labels:
[1] = target: T1, recombinant human KRAS G12C protein (Homo sapiens, UniProt P01116, G12C); test: Covalent binding ability to KRAS G12C protein (LC-MS); details: 3 μM, 5 min
T1 construct: The recombinant human KRAS G12C protein (aa1-169)
Protocol: The following method was used to determine the covalent binding ability of the compounds of the present disclosure to recombinant human KRAS G12C protein under in vitro conditions.
The experimental procedure is briefly described as follows: The recombinant human KRAS G12C protein (aa1-169) was prepared with a reaction buffer (20 mM HEPES, 150 mM NaCl, 1 mM MgCl2, 1 mM DTT) at a concentration of 4 μM for later use. The test compound was prepared with DMSO into a 10 mM stock solution, which was then diluted with the reaction buffer for later use. First, 1.5 μL of the test compound diluted with the reaction buffer was added to each well (a final concentration of the reaction system was […]), then added with 23.5 μL of the reaction buffer, mixed well, then added with 25 μL of 4 μM recombinant human KRAS G12C protein for 5 min of incubation at room temperature, and added with 5 μL of acetic acid to stop the reaction. The samples were transferred to injection vials. The ratios of covalent binding between the test compounds and KRAS G12C protein were detected by Agilent 1290/6530 instrument, and the samples were analyzed in a liquid chromatography column (XBridge Protein BEH C4, 300 Å, 3.5 μm, 2.1 mm×50 mm). In the detection process, mobile phase A was 0.1% formic acid aqueous solution, mobile phase B was acetonitrile, the mobile phase elution program was as follows: mobile phase A was kept at 95% at 0-0.5 min, changed to 30% at 2.5 min for 0.5 min, and changed to 95% at 3.1 min for 1.9 min; and flow rate was 0.5 mL/min. Finally, the data was analyzed by MassHunter Workstation Software Bioconfirm Version B.08.00 to obtain the covalent binding rate between the test compound at a concentration of 3 μM and KRAS G12C protein under 5 min of incubation.

[2] = test system: NCI-H358 cells; test: Inhibition of NCI-H358 cell proliferation (CellTiter-Glo); format: cell-based, human; details: 120 h of culture, read-out: IC50 inhibiting NCI-H358 cell proliferation
Protocol: The following method was used to determine the effect of the compounds of the present disclosure on the proliferation of NCI-H358 cells. NCI-H358 cells (containing KRAS G12C mutation) were purchased from the Cell Resource Center, Shanghai Institutes for Biology Sciences, Chinese Academy of Sciences, and cultured in RPMI 1640 medium containing 10% fetal bovine serum, 100 U penicillin, 100 μg/mL streptomycin and 1 mM sodium pyruvate. Cell viability was determined by CellTiter-Glo® Luminescent Cell Viability Assay Kit (Promega, Cat. No. G7573).
The experiment was conducted according to the steps in the kit instruction, which is briefly described as follows: The test compound was first prepared with DMSO into a 10 mM stock solution, which was then diluted with medium into a test sample with a final concentration of the compound ranging from 1000 nM to 0.015 nM Cells in the logarithmic growth phase were inoculated into a 96-well cell culture plate at a density of 800 cells per well, cultured overnight at 37° C. in a 5% CO2 incubator, and then added with the test compound for 120 h of culture. After the culture was completed, 50 μL of CellTiter-Glo detection solution was added to each well, shaken for 5 min and left to stand for 10 min. Subsequently, the luminescence value of the sample in each well was read by a microplate in a luminescence mode. The percentage of inhibition rate of the compounds at each concentration was calculated by comparing with the value of the control group (0.3% DMSO). Then a nonlinear regression analysis on the log concentration-inhibition rate of the compounds was performed by the software GraphPad Prism 5 to obtain the IC50 value of the compound inhibiting NCI-H358 cell proliferation. Table 2 IC50 data of compounds of the present disclosure inhibiting NCI-H358 cell proliferation Compound number IC50(nM)

[3] = test system: p-ERK1/2 in NCI-H358 cells; test: Inhibition of p-ERK1/2 in NCI-H358 cells (HTRF kit); format: cell-based; details: Homo sapiens, hEGF 5 nM stimulation, read-out: IC50 inhibiting p-ERK1/2 in NCI-H358 cells
Description: The following method was used to determine the inhibitory activity of the compounds of the present disclosure on p-ERK1/2 in NCI-H358 cells. In this method, Advanced phospho-ERK1/2 (Thr202/tyr204) kit (Cat. No. 64AERPEH) from Cisbio company was used, and the detailed experimental operation can be referred to the kit instruction. NCI-H358 cells (containing KRAS G12C mutation) were purchased from the Cell Resource Center, Shanghai Institutes for Biology Sciences, Chinese Academy of Sciences.
The experimental procedure is briefly described as follows: NCI-H358 cells were cultured in RPMIH 1640 complete medium containing 10% fetal bovine serum, 100 U penicillin, 100 μg/mL streptomycin and 1 mM sodium pyruvate. […] The 96-well plate was placed on ice for half an hour of lysis, and then the lysate was detected according to the instruction of the Advanced phospho-ERK1/2 (Thr202/tyr204) kit. Finally, the fluorescence intensity of each well at emission wavelengths of 620 nm and 665 nM was measured on a microplate reader in TF-FRET mode at an excitation wavelength of 304 nm, and the ratio of the fluorescence intensity of each well at 665/620 was calculated. The percentage of inhibition rate of the test compounds at each concentration was calculated by comparing with the fluorescence intensity of the control group (0.1% DMSO). […]

[4] = ICR mouse pharmacokinetic research; format: in vivo; details: plasma, po, ICR mice, intragastric administration 5 mg/kg
Protocol: ICR mice were used as test animals. The drug concentrations in plasma at different time points of the compounds in Comparative Example 1 and Example 17 of the present disclosure intragastrically administered to the mice were determined by LC/MS/MS method, to study the pharmacokinetic characteristics of the compounds of the present disclosure in mice.
Preparation for intragastric administration: An appropriate amount of the compound to be tested was weighed, added with an appropriate amount of DMSO: PEG 200=5%: 95% (v/v), shaken by vortex, and prepared into a solution with a final concentration of 0.5 mg/mL.
Intragastric administration group: After fasting overnight, the mice were intragastrically administered at a dose of 5 mg/kg and a volume of 10 mL/kg, and fed 4 h after the administration.
Intragastric administration group: About 100 μL of blood was collected through the orbital vein before administration and at 0.25 h, 0.5 h, 1 h, 2 h, 4 h, 8 h, 12 h and 24 h after administration.
The whole blood sample was put in an EDTA-K2 anticoagulant tube. The plasma was separated by centrifugation at 1500 g for 10 min. The collected upper layer plasma was stored at −40 to −20° C. before analysis.
The content of the compound to be tested in mouse plasma was determined by LC-MS/MS after the compound was intragastrically administered.

T1 sequence (P01116 1-169 isoform P01116-2 G12C): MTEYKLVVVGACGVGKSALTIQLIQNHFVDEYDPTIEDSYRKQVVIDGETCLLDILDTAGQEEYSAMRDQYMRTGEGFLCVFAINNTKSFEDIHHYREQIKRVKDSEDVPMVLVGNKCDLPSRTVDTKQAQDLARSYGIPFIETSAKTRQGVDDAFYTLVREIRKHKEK

| Covalent binding rate (%) [1] | IC50 ([2]; Homo sapiens, NCI-H358, 120 h) | IC50 [2] | SMILES | further results |
| --- | --- | --- | --- | --- |
| 45.5% | 73.4 nM |  | C=CC(=O)N1C[C@@H]2C(=O)N(C)c3c(c4cc(F)c(-c5nc(N)ccc5Cl)nc4n(-c4c(C)ccnc4C(C)C)c3=O)N2C[C@H]1C [Compound 10, (2R,4aR)-3-acryloyl-10-(6-amino-3-chloropyridin-2-yl)-11-fluoro-8-(2-isopropyl-4-methylpyridin-3-yl)-2,6-dimethyl-2,3,4,4a,6,8-hexahydro-1H-pyrazino [1′,2′:4,5]pyrazino[2,3-c][1,8] naphthyridine-5,7-dione] |  |
|  |  | 98.5 nM | C=CC(=O)N1C[C@@H]2C(=O)N(C)c3c(c4cc(Cl)c(-c5c(O)cccc5F)nc4n(-c4c(SC)ccnc4C(C)C)c3=O)N2C[C@H]1C [Compound 18] |  |
| 38.5% |  | 39.9 nM | C=CC(=O)N1C[C@@H]2C(=O)N(C)c3c(c4cc(Cl)c(-c5c(O)cccc5F)nc4n(-c4c(SC)ccnc4C(C)C)c3=O)N2C[C@H]1C [Compound 16, (2R,4aR)-3-acryloyl-11-chloro-10-(2-fluoro-6-hydroxyphenyl)-8-(2-isopropyl-4-(methylthio)pyridin-3-yl)-2,6-dimethyl-2,3,4,4a,6,8-hexahydro-1H-pyrazino [1′,2′:4,5]pyrazino[2,3-c][1,8] naphthyridine-5,7-dione] | IC50 [3]: 93 nM |
|  |  |  | C=CC(=O)N1C[C@@H]2C(=O)N(C)c3c(c4cc(Cl)c(-c5c(O)cccc5F)nc4n(-c4c(C)ccnc4C(C)C)c3=O)N2C[C@H]1C (atropisomer, axis not shown) [Comparative Example 1, reference compound] | AUC(0-inf) ([4]; read-out: Area under curve AUC0-∞): 4180 ng·h/mL; Cmax ([4]; read-out: Blood concentration Cmax): 928 ng/mL; half-life ([4]; read-out: Half-life T½ (converted)): 1.95 h |
| 42.5% | 67.2 nM |  | C=CC(=O)N1C[C@@H]2C(=O)N(C)c3c(c4cc(F)c(-c5ccc(F)c6sc(N)nc56)nc4n(-c4c(C)ccnc4C(C)C)c3=O)N2C[C@H]1C [Compound 7, (2R,4aR)-3-acryloyl-10-(2-amino-7-fluorobenzo[d]thiazol-4-yl)-11-fluoro-8-(2-isopropyl-4-methylpyridin-3-yl)-2,6-dimethyl-2,3,4,4a,6,8-hexahydro-1H-pyrazino [1′,2′:4,5]pyrazino[2,3-c][1,8]naphthyridine-5,7-dione] |  |
